Values quoted from earlier work in patent US20100322881A1, “UVB FILTER BASED ON ASCORBIC ACID DERIVATIVES” (MERCK PATENT GESELLSCHAFT, priority 2008, published 2010).

Test system: prolyl-4-hydroxylase
Conditions: literature statement; for supporting the activity of the enzyme prolyl-4-hydroxylase: Biochem. J. 1994, 300, 75-79

Compound | affinity to the enzyme (compared with the monosubstituted compound) | supporting the activity of the enzyme prolyl-4-hydroxylase
CC(=O)Oc1ccccc1C(=O)OC[C@H](OC(=O)c1ccccc1OC(C)=O)[C@H]1OC(=O)C(O)=C1O [O^5O^6-bis(2-acetoxybenzoyl) L-ascorbate] | lower affinity | capable of supporting the activity
CC(=O)Oc1ccccc1C(=O)OC[C@H](O)[C@H]1OC(=O)C(O)=C1O [O^6-(2-acetoxybenzoyl) L-ascorbate] |  | capable of supporting the activity
